These results are taken from patent publication US20050181076A1, “Compositions and methods for treatment of diabetes” (priority 1999, published 2005).

Test [1] relates to diabetics. In words: Brickellia flavonoids administered to diabetics. Type of test: in vivo. As to conditions: for results in diabetics compared with the extract: flavonoids extracted and fractionated from Brickellia californica; for effectiveness in treating diabetes: alone or in combination. From the text: The flavonoids specifically used were dihydrokaemferol and apigenin, a flavone. […] I have discovered an underlying “molecular switch” that controls both forms of diabetes. This “switch” can be operated by luteolin and similar flavonoids.

In test [2] the test system is Type 1 (BB/Wor) diabetic rats. As to the kind of experiment: single luteolin treatment in chronic Type I diabetic rats, blood glucose 0-6 hours. It counts as in vivo, rat. Particulars: for average blood glucose at 6 hours: from 415 (insulin) and 445 (luteolin) mg/dl at time 0; for decrease in blood glucose levels: within 6 hours, luteolin 3 mg intragastrically, PZI insulin 0.9-1.2 mU/day subcutaneous. As to the method:
Animal tests of luteolin were made at BRM (Biomedical Research Models, Inc.) an East coast contract research organization (CRO) that specializes in diabetes research. […] Historically, these strains have been widely used in similar pre-clinical studies to predict anti-diabetogenic efficacy. […] In this study, lean male diabetics were randomly assigned to 3 treatment groups (3-4 rats/group). […] Blood glucose was evaluated from time 0 through 6 hours (11 AM-5 PM). […] This response was fully consistent with prior work in the Type I rat model. […] In comparison, there was no reduction in the hyperglycemic state in the control group over the same interval (414 to 404 mg/dl).

Test [3] has as its target Kv1.3 voltage gated potassium channel (Homo sapiens, UniProt P22001). In words: patch clamp analysis of Kv1.3 block. Type of test: cell-based. From the text: When the toxic CD8^− Natural Killer Cells combines with the CD4^− Helper T Cells at cystein they electronically stimulate calmodulin. This voltage sensor activates one of the 80+ super gene channels necessary for the activation of the CD4^− and CD8^− T Cells, Kv1.3 a voltage gated potassium channel. If this channel is not activated by calmodulin the T-Cells remain in their resting states. […] There are 200 pores in a resting Beta cell. When cell potential reaches 1.3 nVolts, the Kv1.3, voltage gated potassium channel opens to expose the tyrosine kinase tails. These kinases when stimulated turn on the ras-Oncogene, a cancer promoter, which turns on Protein Kinase C, another tumor promoter. These drive the Nuclear Factors of the Activated T-Cell, such as cAMP; which stimulates the susceptibility genes associated with diabetes such as those on chromosome 19q13.3. These in turn produce InterLeukin-2, an inflammatory cytokine messenger signaling further T-Cell proliferation. When CD8^− cells sample the external receptors of the Beta cell, they find and bind to laminin to sites, such as AGM1, and releases InterLeukin-2 upon calcium loading. This inflammatory cytokine causes cell activation and suppression of insulin release. […]

Test [4] concerns Type II (BBZDR/Wor) diabetic rats. In words: luteolin dose study in chronic Type 2 diabetic rats over 24 hr. It counts as in vivo, rat. As to the method: Animal tests of luteolin were made at BRM (Biomedical Research Models, Inc.) an East coast contract research organization (CRO) that specializes in diabetes research. […] Historically, these strains have been widely used in similar pre-clinical studies to predict anti-diabetogenic efficacy.
First, a 24 hour baseline study was performed on 9 chronic Type 2 rats. We found no significant change in hyperglycemia over this 24 hour period of analysis in the diabetic rats. […] Blood glucose analysis was evaluated every 2 hours.
Unfortunately, that animal died sometime before the 24 hr time point as a result of an accidental perforation of the esophagus during the administration of drug.

Test [5] has the same test system. As to the kind of experiment: extended (two weeks) luteolin treatment of obese Type II diabetic rats. Type of test: in vivo, rat.
From the text: In the next experiment we elected to provide these same rats with a standardized dose over an extended period of treatment. […] The data were expressed for each rat as a percentage change in blood glucose level relative to each individual pre-treatment level.
Test [6] relates to diabetic test animals (rats and mice). In words: Brickellia extract and flavonoids in diabetic test animals. Type of test: in vivo. How it is done: It is believed that the Brickellia californica extract includes the flavonoids dihydrokaemferol, apigenin, luteolin, myricetin and quercetin. Further, the many other species of Brickellia contain these, or similar flavonoids, albeit in different proportions, and should also be effective in treatment of diabetes. Experiments with diabetic test animals (rats and mice) were carried out. […] Further, the administration of synthetic versions of the Brickellia flavonoids were also effective at lowering glucose levels.

Sequence of Kv1.3 voltage gated potassium channel (P22001 whole entry): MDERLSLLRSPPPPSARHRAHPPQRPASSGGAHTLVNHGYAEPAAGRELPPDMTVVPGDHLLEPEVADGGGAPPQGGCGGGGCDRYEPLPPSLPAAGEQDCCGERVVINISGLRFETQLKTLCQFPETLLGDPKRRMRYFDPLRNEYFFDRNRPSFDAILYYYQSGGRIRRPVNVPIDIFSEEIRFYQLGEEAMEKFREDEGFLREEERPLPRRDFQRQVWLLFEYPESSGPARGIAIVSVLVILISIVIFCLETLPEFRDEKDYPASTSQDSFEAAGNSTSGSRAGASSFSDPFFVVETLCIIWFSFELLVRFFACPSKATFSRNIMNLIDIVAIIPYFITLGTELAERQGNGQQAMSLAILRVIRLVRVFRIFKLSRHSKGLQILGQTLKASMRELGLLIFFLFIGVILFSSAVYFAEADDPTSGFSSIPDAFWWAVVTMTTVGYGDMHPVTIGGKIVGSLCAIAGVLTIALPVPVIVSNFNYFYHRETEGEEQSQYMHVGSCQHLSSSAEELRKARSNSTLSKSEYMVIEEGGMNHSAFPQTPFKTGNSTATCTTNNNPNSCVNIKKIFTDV

`O=c1cc(-c2ccc(O)cc2)oc2cc(O)cc(O)c12` [apigenin]: in test [1], the “results in diabetics compared with the extract” value is “results similar to those produced by the extract”.

`O=c1c(O)c(-c2cc(O)c(O)c(O)c2)oc2cc(O)cc(O)c12` [myricetin]: the “effectiveness in treating diabetes” value in test [1] is reported as “effective in treating diabetes”.

For the molecule `O=C1c2c(O)cc(O)cc2O[C@H](c2ccc(O)cc2)[C@H]1O` [dihydrokaemferol], in test [1], the “results in diabetics compared with the extract” value is “results similar to those produced by the extract”.

As to insulin [reference compound], in test [2], the “average blood glucose at 6 hours” value was 112 mg/dL and the “decrease in blood glucose levels” value is 75%.

As to `O=c1cc(-c2ccc(O)c(O)c2)oc2cc(O)cc(O)c12` [luteolin], the “block of Kv1.3 channel at 100 nM” value in test [3] (luteolin tested at 100 nM, cell remained in its resting state) is listed as “blocked completely”. The “block of Kv1.3 channel” value in test [3] (patch clamp analysis) is reported as “blocks this channel”. In addition, in test [2], the “average blood glucose at 6 hours” value turned out to be 307 mg/dL and the “decrease in blood glucose levels” value is recorded as 31%. The “decrease in blood glucose levels, 50 mg three times a day” value in test [4] (Type 2 diabetic rats, 150 mg total, within 24 hr) is reported as 10.2%. In addition, the “drop in blood glucose, 150 mg three times a day” value in test [4] (Type 2 diabetic rats, 450 mg total, 24 hr) is on record as 22.9%. Further, the “decrease in glucose, 250 mg three times a day” value in test [4] (Type 2 diabetic rats, 750 mg total, 24 hr) was 27.7%. In test [4] (Type II diabetic rats, over a 24 hour period, dose-dependent), the “reduction of hyperglycemia over all doses” value is recorded as 10-28%. The “reduction of blood glucose in one rat” value in test [4] (one Type 2 rat, intermediate dose (150 mg), within 18 hr) is on record as 52%. Moreover, the “blood glucose of one rat after treatment” value in test [4] (one Type 2 rat, intermediate dose, from 777 mg/dl, within 18 hr) stood at 372 mg/dL. Moreover, the “average drop of blood glucose levels” value in test [5] (Type II rats, 50 mg 3x/day for two weeks) was 41.1%. Also, the “average blood glucose after treatment” value in test [5] (Type II rats, 50 mg 3x/day for two weeks, from 660 mg/dl) worked out at 389 mg/dL. Besides, the “increase in blood glucose in one rat” value in test [5] (one rat with esophageal fistula that likely prohibited effective dosing, 50 mg 3x/day two weeks) was 9.3%. In addition, the “rank among treatments involving a single flavonoid” value in test [6] is given as “the most effective agent”. For the same molecule, the “effectiveness in treating diabetes” value in test [1] was “effective in treating diabetes”.
